This note sets out measurements from patent US11046680B1, “Heteroaryl-substituted triazoles as APJ receptor agonists” (priority 2016, dated 2021).

Usually pEC50 stands for the negative decadic logarithm of the EC50, by convention in mol/L.

pEC50: −log10 of the molar value.

Sequence of human APJ receptor (P35414 whole entry): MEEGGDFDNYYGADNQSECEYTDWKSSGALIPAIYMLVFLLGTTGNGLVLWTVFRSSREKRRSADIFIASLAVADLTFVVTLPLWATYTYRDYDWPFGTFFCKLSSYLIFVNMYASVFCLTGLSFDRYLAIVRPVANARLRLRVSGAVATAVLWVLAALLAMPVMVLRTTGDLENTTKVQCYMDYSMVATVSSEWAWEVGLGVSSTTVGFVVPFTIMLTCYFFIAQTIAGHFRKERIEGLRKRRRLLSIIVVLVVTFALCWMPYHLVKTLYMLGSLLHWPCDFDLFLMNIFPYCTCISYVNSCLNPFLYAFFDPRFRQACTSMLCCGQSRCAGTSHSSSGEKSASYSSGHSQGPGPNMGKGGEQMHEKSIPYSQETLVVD

The test has as its target human APJ receptor (Homo sapiens (Human), UniProt P35414). Nature of the test: biochemical. Type of test: biochemical. As to conditions: [35S]GTPγS binding, CHO membranes expressing human APJ receptor; read-out: Activity hAPJ SPA EC50 IP. In short, it runs like this: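 GTPγS binding on membranes from CHO cells stably expressing FLAG-tagged human APJ, with optimized GDP, MgCl2 and NaCl; incubated 90 min at RT before imaging read-out.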
(In general: GTPγS resists hydrolysis and so accumulates on activated G proteins.)
Turning to “(2S)-N-(4-(2,6-dimethoxyphenyl)-5-(6-methoxy-2-pyrazinyl)-4H-1,2,4-triazol-3-yl)-1-(5-fluoro-2-pyrimidinyl)-2-propanesulfonamide and (2R)-N-(4-(2,6-dimethoxyphenyl)-5-(6-methoxy-2-pyrazinyl)-4H-1,2,4-triazol-3-yl)-1-(5-fluoro-2-pyrimidinyl)-2-propanesulfonamide [Example 177.0]”, the pEC50 was 8.35.

On to `COc1cccc(OC)c1-n1c(NS(=O)(=O)[C@@H](C)[C@H](C)c2ncc(Cl)cn2)nnc1-c1n[nH]c2c1CCCC2` [Example 438.0, (2S,3R)-3-(5-chloropyrimidin-2-yl)-N-(4-(2,6-dimethoxyphenyl)-5-(4,5,6,7-tetrahydro-1H-indazol-3-yl)-4H-1,2,4-triazol-3-yl)butane-2-sulfonamide], for which the pEC50 was 8.04.

For the compound `CCO[C@@H](c1ncc(Cl)cn1)[C@H](C)S(=O)(=O)Nc1nnc(-c2ccn(C)n2)n1-c1c(OC)cccc1OC` (single isomer, unassigned) [Example 353.0, (1S,2S)-1-(5-chloropyrimidin-2-yl)-N-(4-(2,6-dimethoxyphenyl)-5-(1-methyl-1H-pyrazol-3-yl)-4H-1,2,4-triazol-3-yl)-1-ethoxypropane-2-sulfonamide or (1R,2R)-1-(5-chloropyrimidin-2-yl)-N-(4-(2,6-dimethoxyphenyl)-5-(1-methyl-1H-pyrazol-3-yl)-4H-1,2,4-triazol-3-yl)-1-ethoxypropane-2-sulfonamide], the negative logarithm of the EC50 (pEC50) was 9.66.

Turning to `CCc1csc(-c2nnc(NS(=O)(=O)CCc3ccc(Cl)cc3)n2-c2c(OC)cccc2OC)n1` [Example 152.0, 2-(4-chlorophenyl)-N-(4-(2,6-dimethoxyphenyl)-5-(4-ethylthiazol-2-yl)-4H-1,2,4-triazol-3-yl)ethanesulfonamide], the pEC50 is < 4.90.

For `COc1cccc(OC)c1-n1c(NS(=O)(=O)[C@H](C)[C@@H](C)c2ncc(C)cn2)nnc1-c1nc(C)cs1` (stereo in doubt) [Example 1.0, (2R,3 S)-N-(4-(2,6-dimethoxyphenyl)-5-(4-methylthiazol-2-yl)-4H-1,2,4-triazol-3-yl)-3-(5-methylpyrimidin-2-yl)butane-2-sulfonamide], the pEC50 was 9.89.

Consider `COc1cccc(OC)c1-n1c(NS(=O)(=O)[C@@H](C)[C@H](OC)c2ncc(Cl)cn2)nnc1-c1n[nH]c2ccc(Cl)cc12` [Example 422.0, (1R,2S)-N-(5-(5-chloro-1H-indazol-3-yl)-4-(2,6-dimethoxyphenyl)-4H-1,2,4-triazol-3-yl)-1-(5-chloropyrimidin-2-yl)-1-methoxypropane-2-sulfonamide], for which the negative-log EC50 (pEC50) is 8.21.

As to “(R)-N-(4-(2,6-dimethoxyphenyl)-5-(1,5-dimethyl-1H-pyrazol-3-yl)-4H-1,2,4-triazol-3-yl)-1-(5-fluoropyrimidin-2-yl)propane-2-sulfonamide and (S)-N-(4-(2,6-dimethoxyphenyl)-5-(1,5-dimethyl-1H-pyrazol-3-yl)-4H-1,2,4-triazol-3-yl)-1-(5-fluoropyrimidin-2-yl)propane-2-sulfonamide [Example 46.0]”, the pEC50 was 7.51.

As for `COc1ccc(N2CCC2=O)cc1-n1c(NS(=O)(=O)CCc2ccc(F)cc2)nnc1-c1cccs1` [Example 130.0, 2-(4-Fluorophenyl)-N-(4-(2-methoxy-5-(2-oxo-1-azetidinyl)phenyl)-5-(2-thiophenyl)-4H-1,2,4-triazol-3-yl)ethanesulfonamide], the negative logarithm of the EC50 (pEC50) is 8.46.

Consider `COc1cccc(OC)c1-n1c(NS(=O)(=O)[C@@H](C)[C@H](OC)c2ncc(C)cn2)nnc1-c1ccc(C)s1` [Example 332.0, (1R,2S)-N-(4-(2,6-dimethoxyphenyl)-5-(5-methyl-2-thiophenyl)-4H-1,2,4-triazol-3-yl)-1-methoxy-1-(5-methyl-2-pyrimidinyl)-2-propanesulfonamide], for which the pEC50 was 9.43.

Consider `COc1cccc(OC)c1-n1c(NS(=O)(=O)[C@@H](C)[C@H](OC)c2ncc(C)cn2)nnc1-c1noc2ccccc12` [Example 87.0, (1R,2S)-N-(5-(benzo[d]isoxazol-3-yl)-4-(2,6-dimethoxyphenyl)-4H-1,2,4-triazol-3-yl)-1-methoxy-1-(5-methylpyrimidin-2-yl)propane-2-sulfonamide], for which the pEC50 is 7.09.

As for `COc1cccc(OC)c1-n1c(NS(=O)(=O)[C@@H](C)[C@H](C)c2ncc(F)cn2)nnc1-c1cc2n(n1)CCC2` [Example 208.0, (2S,3R)-N-(5-(5,6-dihydro-4H-pyrrolo[1,2-b]pyrazol-2-yl)-4-(2,6-dimethoxyphenyl)-4H-1,2,4-triazol-3-yl)-3-(5-fluoro-2-pyrimidinyl)-2-butanesulfonamide], the negative logarithm of the EC50 (pEC50) was 8.60.

For the compound `COc1cccc(OC)c1-n1c(NS(=O)(=O)C[C@H](OC)c2ccc(F)cc2S(C)(=O)=O)nnc1-c1ccn(C)n1` (single isomer, unassigned) [Example 373.0, (R)-N-(4-(2,6-Dimethoxyphenyl)-5-(1-methyl-1H-pyrazol-3-yl)-4H-1,2,4-triazol-3-yl)-2-(4-fluoro-2-(methylsulfonyl)phenyl)-2-methoxyethanesulfonamide or (S)-N-(4-(2,6-dimethoxyphenyl)-5-(1-methyl-1H-pyrazol-3-yl)-4H-1,2,4-triazol-3-yl)-2-(4-fluoro-2-(methylsulfonyl)phenyl)-2-methoxyethanesulfonamide], the pEC50 is 8.89.

Regarding `COc1cccc(OC)c1-n1c(NS(=O)(=O)[C@H](C)[C@H](C)c2ncc(F)cn2)nnc1-c1nc(C)cs1` (single isomer, unassigned) [Example 165.0], the pEC50 is 6.96.

Turning to `COc1cccc(OC)c1-n1c(NS(=O)(=O)[C@@H](C)[C@H](OC)c2ncc(C)cn2)nnc1-c1cc(C)[nH]n1` [Example 333.0, (1R,2S)-N-(4-(2,6-dimethoxyphenyl)-5-(5-methyl-1H-pyrazol-3-yl)-4H-1,2,4-triazol-3-yl)-1-methoxy-1-(5-methyl-2-pyrimidinyl)-2-propanesulfonamide], the pEC50 was 8.82.

With `COc1cccc(OC)c1-n1c(NS(=O)(=O)[C@@H](C)[C@H](OC)c2ncc(C)cn2)nnc1-c1coc(C)n1` [Example 339.0, (1R,2S)-N-(4-(2,6-dimethoxyphenyl)-5-(2-methyl-1,3-oxazol-4-yl)-4H-1,2,4-triazol-3-yl)-1-methoxy-1-(5-methyl-2-pyrimidinyl)-2-propanesulfonamide], the pEC50 was 8.68.

Consider `COc1cccc(OC)c1-n1c(NS(=O)(=O)CCC(=O)N2CCCC2)nnc1-c1cccs1` [Example 361.0, N-(4-(2,6-Dimethoxyphenyl)-5-(thiophen-2-yl)-4H-1,2,4-triazol-3-yl)-3-oxo-3-(pyrrolidin-1-yl)propane-1-sulfonamide], for which the negative-log EC50 (pEC50) is 7.47.

Regarding `COc1cnc([C@@H](C)[C@H](C)S(=O)(=O)Nc2nnc(-c3ccn(C)n3)n2-c2c(OC)ncnc2OC)nc1` [Example 296.0, (2S,3R)-N-(4-(4,6-dimethoxy-5-pyrimidinyl)-5-(1-methyl-1H-pyrazol-3-yl)-4H-1,2,4-triazol-3-yl)-3-(5-methoxy-2-pyrimidinyl)-2-butanesulfonamide], the pEC50 is 8.57.

As to `COCC1(n2c(NS(=O)(=O)[C@@H](C)[C@H](C)c3cnc(OC)cn3)nnc2-c2ccn(C)n2)CC1` [Example 454.0, (2S,3R)-N-(4-(1-(methoxymethyl)cyclopropyl)-5-(1-methyl-1H-pyrazol-3-yl)-4H-1,2,4-triazol-3-yl)-3-(5-methoxy-2-pyrazinyl)-2-butanesulfonamide], the pEC50 is 7.25.

On to `COc1cccc(OC)c1-n1c(NS(=O)(=O)[C@@H](C)[C@H](C)c2ncc(Cl)cn2)nnc1-c1cc2n(n1)CCC2` [Example 221.0, (2S,3R)-3-(5-chloro-2-pyrimidinyl)-N-(5-(5,6-dihydro-4H-pyrrolo[1,2-b]pyrazol-2-yl)-4-(2,6-dimethoxyphenyl)-4H-1,2,4-triazol-3-yl)-2-butanesulfonamide], for which the negative logarithm of the EC50 (pEC50) is 9.49.

With `O=S(=O)(CCc1ccc(Cl)cc1)Nc1nnc(-c2ccc(F)s2)n1-c1ccccc1OC(F)F` [Example 244.0, 2-(4-chlorophenyl)-N-(4-(2-(difluoromethoxy)phenyl)-5-(5-fluoro-2-thiophenyl)-4H-1,2,4-triazol-3-yl)ethanesulfonamide], the pEC50 was 7.68.

For the compound `CCO[C@@H](c1ncc(Cl)cn1)[C@@H](C)S(=O)(=O)Nc1nnc(-c2ccn(C)n2)n1-c1c(OC)cccc1OC` (single isomer, unassigned) [Example 354.0, (1S,2R)-1-(5-chloropyrimidin-2-yl)-N-(4-(2,6-dimethoxyphenyl)-5-(1-methyl-1H-pyrazol-3-yl)-4H-1,2,4-triazol-3-yl)-1-ethoxypropane-2-sulfonamide or (1R,25)-1-(5-chloropyrimidin-2-yl)-N-(4-(2,6-dimethoxyphenyl)-5-(1-methyl-1H-pyrazol-3-yl)-4H-1,2,4-triazol-3-yl)-1-ethoxypropane-2-sulfonamide], the pEC50 was 9.12.

For `COc1cccc(OC)c1-n1c(NS(=O)(=O)[C@@H](C)[C@H](O)c2ncc(C)cn2)nnc1-c1cc2n(n1)CCC2` [Example 220.0, (1R,2S)-N-(5-(5,6-dihydro-4H-pyrrolo[1,2-b]pyrazol-2-yl)-4-(2,6-dimethoxyphenyl)-4H-1,2,4-triazol-3-yl)-1-hydroxy-1-(5-methyl-2-pyrimidinyl)-2-propanesulfonamide], the pEC50 was 8.18.

On to `COc1cccc(OC)c1-n1c(NS(=O)(=O)[C@@H](C)[C@H](OC)c2ncc(C)cn2)nnc1-c1cnn2ccc(C)cc12` [Example 416.0, (1R,2S)-N-(4-(2,6-dimethoxyphenyl)-5-(5-methylpyrazolo[1,5-a]pyridin-3-yl)-4H-1,2,4-triazol-3-yl)-1-methoxy-1-(5-methylpyrimidin-2-yl)propane-2-sulfonamide], for which the pEC50 was 8.08.

Consider `COc1ncnc(OC)c1-n1c(NS(=O)(=O)[C@@H](C)[C@H](C)c2ccc(Cl)cn2)nnc1-c1cnn(C)c1` [Example 535.0, (2S,3R)-3-(5-chloro-2-pyridinyl)-N-(4-(4,6-dimethoxy-5-pyrimidinyl)-5-(1-methyl-1H-pyrazol-4-yl)-4H-1,2,4-triazol-3-yl)-2-butanesulfonamide], for which the pEC50 is 9.18.
